This passage reports Activity results from ChEMBL document CHEMBL4364255, “3,4-Dideoxy-3,3,4,4-tetrafluoro- and 4-OH epimeric 3-deoxy-3,3-difluoro-α-GalCer analogues: Synthesis and biological evaluation on human iNKT cells stimulation” (Eur J Med Chem, 2019).

Active and inactive are the calls of the source. No cut-off for these calls is given here.

What all share (assay type): cell-based
Data set [1] deals with T1, Antigen-presenting glycoprotein CD1d (Homo sapiens) (UniProt P15813).
T1 sequence (whole entry): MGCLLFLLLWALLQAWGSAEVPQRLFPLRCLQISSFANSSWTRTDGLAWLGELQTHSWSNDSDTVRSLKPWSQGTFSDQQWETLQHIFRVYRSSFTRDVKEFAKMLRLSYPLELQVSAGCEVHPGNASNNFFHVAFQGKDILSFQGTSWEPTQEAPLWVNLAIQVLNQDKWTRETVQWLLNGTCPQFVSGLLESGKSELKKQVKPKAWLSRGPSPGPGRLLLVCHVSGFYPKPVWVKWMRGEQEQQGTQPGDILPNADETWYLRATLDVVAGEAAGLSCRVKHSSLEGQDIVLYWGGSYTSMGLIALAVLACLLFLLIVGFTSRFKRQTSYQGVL
The experiment in a line: Binding affinity to human CD1d expressed in human HeLa cells assessed as increase in IFNgamma production at 10 uM to 10^-4 uM incubated overnight prior to iNKT MAD11 cells addition to CD1d-compound mixture and measured after 6 hrs by ELISA. In general terms: In an ELISA, binding on a coated surface is turned into a signal by an enzyme label.

Data set [2] has as its target T1, Antigen-presenting glycoprotein CD1d (Homo sapiens). The data set is described as follows: Binding affinity to human CD1d expressed in human HeLa cells assessed as increase in IL-13 production at 10 uM to 10^-4 uM incubated overnight prior to iNKT MAD11 cells addition to CD1d-compound mixture and measured after 24 hrs by ELISA.
For data set [3], the system named is iNKT. The experiment in a line: Effect on human iNKT MAD11 cells stimulation assessed as increase in IFNgamma production pretreated with HeLa cells for overnight prior to iNKT MAD11 cells addition and measured after 6 hrs by ELISA.
For data set [4], the system named is iNKT. The experiment in a line: Effect on human iNKT MAD11 cells stimulation assessed as increase in IL-13 production pretreated with HeLa cells for overnight prior to iNKT MAD11 cells addition and measured after 24 hrs by ELISA.

For `CCCCCCCCCCCCCCCCCCCCCCCCCC(=O)N[C@@H](CO[C@H]1O[C@H](CO)[C@H](O)[C@H](O)[C@H]1O)[C@H](O)[C@H](O)CCCCCCCCCCCCCC` [RGI-7000], the outcome in data set [1] and in data set [2] was Active. Moreover, the Activity result in the data set on iNKT [3] and in the data set on iNKT [4] was “Non-Toxic” throughout.
As to `CCCCCCCCCCCCCCCCCCCCCCCCCC(=O)N[C@@H](CO[C@H]1O[C@H](CO)[C@H](O)[C@H](O)[C@H]1O)C(F)(F)[C@H](O)CCCCCCCCCCCCCC`, the outcome in data set [1] and in data set [2] was Active. Besides, the Activity entry with iNKT [3] and with iNKT [4] was “Non-Toxic” each time.
In the case of `CCCCCCCCCCCCCCCCCCCCCCCCCC(=O)N[C@@H](CO[C@H]1O[C@H](CO)[C@H](O)[C@H](O)[C@H]1O)C(F)(F)C(F)(F)CCCCCCCCCCCCCC`, the outcome in data set [1] and in data set [2] was Active. In addition, the Activity result with iNKT [3] and with iNKT [4] was “Non-Toxic” each time.
`CCCCCCCCCCCCCCCCCCCCCCCCCC(=O)N[C@@H](CO[C@H]1O[C@H](CO)[C@H](O)[C@H](O)[C@H]1O)C(F)(F)[C@@H](O)CCCCCCCCCCCCCC`: the result in data set [1] and in data set [2] was Active. The Activity entry in the data set with iNKT [3] and with iNKT [4] was “Non-Toxic” throughout.
